The values that follow come from patent US10273290B2, “Hydrocarbon double-stapled stabilized HIV-1 GP41 heptad repeat domain peptides” (DANA-FARBER CANCER INSTITUTE, INC., priority 2009, dated 2019).

“Also recorded” adds a separate entry of the source. Where two headings read alike, the source gives them in different places. Bridge positions count the residues as written; N and C are the ends. Square brackets hold non-standard residues; d marks the D form. Ends that are not written are not given here. Peptide text beside a SMILES is read from it. S5 = C=CCCC[C@](C)(N)C(=O)O; Nle = CCCC[C@H](N)C(=O)O

Data set [1] is described as follows: Chymotrypsin, pH 7. An excerpt: (§1) Title: Chymotrypsin, pH 7
First reader's note: The table also serves as the legend of the plot of fraction intact over time; the line and marker symbols are left out.

The target of a further data set is T1, chymotrypsin (Bos taurus, UniProt P00766).
T1 construct: purchased Sigma
As to the kind of experiment: Protease resistance assay, chymotrypsin (LC/MS). Conditions: pH 7.4, 0.5 chymotrypsin, peptide 25 μM. It counts as in vitro ADME.

Data set [2] concerns HIV-1 strains HXBc2, ADA, and HXBc2P 3.2. The data set can be described thus: Luciferase-based HIV-1 infectivity assay, three strains. It counts as cell-based. On the procedure: Also the direct inhibitory activity of modified polypeptides and the antibodies targeted thereto can be quantified based upon their capacity to directly block HIV infection of CD4-positive and CCR5-expressing canine thymus cells. […] The identical experiment is performed with the amphotropic murine leukemia virus (AMLV), to monitor for any nonspecific effects of the modified polypeptides or antibodies.
(§2) HIV-1 infectivity assays were performed using known methods (Madani et al., 2007 Inhibition of human immunodeficiency virus envelope glycoprotein-mediated single cell lysis by low-molecular-weight antagonists of viral entry. J Virol, 81: 532-538; and Si et al., 2001 Envelope glycoprotein determinants of neutralization resistance in a simian-human immunodeficiency virus (SHIV-HXBc2P 3.2) derived by passage in monkeys. J Virol, 75:4208-4218; both incorporated herein by reference). […] Virus-containing supernatants were harvested 24-30 hr after transfection, filtered, aliquoted, and stored at −80° C. Target cells were seeded at a density of 6×10^3 cells/well in 96-well plates 24 hours prior to infection. Cf2Th-CD4-CCR5 cells were used for infections by viruses with the ADA, YU2, and A-MLV envelope glycoproteins, and Cf2Th-CD4-CXCR4 cells used for HXBc2, HXBc2P 3.2, and A-MLV. On the day of infection, the structured peptides (0-3 μM) were added to recombinant viruses (10,000 RT units) to a final volume of 50 μL and incubated at 37° C. for 30 min. Media was then removed and the target cells incubated with virus-peptide mixture for 48 hours at 37° C. The media was again removed and the cells lysed with 30 μL of passive lysis buffer (Promega) and three freeze-thaw cycles.
Recombinant HIV-1 bearing the envelope glycoproteins from three distinct HIV-1 strains, HXBc2, ADA, and HXBc2P 3.2, and a negative control virus bearing the amphotropic murine leukemia virus (A-MLV) envelope glycoproteins, were evaluated.

For another data set, the system named is pepsin. As to the kind of experiment: Protease resistance assay, pepsin at pH 2. To be noted: for Half-life (minutes), pepsin: pepsin at 0.5 ng/μL, peptide 25 μM, acidic conditions. How it is done:
The DAD signal was set to 280 nm with an 8 nm bandwidth and MSD set to scan mode with one channel at (M+2H)/2, +1 mass units and the other at (M+3H)/3, +1 mass units. […] Reaction samples were composed of 5 μL peptide in DMSO (1 mM stock) and 195 μL of buffer consisting of 50 mM phosphate buffer pH 7.4 containing 2 mM CaCl2. Upon injection of the 0 hr time point sample, 2 μL of 50 ng/μL chymotrypsin (Sigma) was added and the amount of intact peptide quantitated by serial injection over time. An internal control of acetylated tryptophan carboxamide at a concentration of 100 μM was used to normalize each MSD data point. A plot of MSD area versus time yielded an exponential decay curve and half-lives were determined by nonlinear regression analysis using Prism software (GraphPad). The assay was also performed using trypsin and pepsin in their appropriate buffer conditions.

The nature of data set [3]: Chymotrypsin, pH 7.
Description: Table printed on a drawing sheet, FIG. 17D
as §1
First reader's note: The table also serves as the legend of the plot below it (fraction intact over time); the plot symbols before the compound names are left out.
This is another data set of the same source.

The next data set concerns 4E10 antibody. The data set can be described thus: Competitive 4E10 antibody binding by ELISA. Conditions: competition with wild-type MPER peptide probe. Details: species or system human. On the procedure:
Half maximal inhibitory concentrations (IC50s) were determined by competitive enzyme-linked assay (ELISA) using a constant concentration of biotinylated peptide and 4E10-IgG with a variable concentration of gp41 peptides. Microwells were coated overnight at 4° C. with 50 μl of PBS containing neutravidin (4 μg/ml). Wells were washed twice with PBS containing 0.05% Tween 20, and blocked with 4% non-fat dry milk (NFDM) in PBS for 45 min at 37° C. Meanwhile, a mixture of a biotinylated 4E10-peptide epitope, biotin-PEG2-[…], (20 nM), IgG 4E10 (0.2 nM), and the competing peptide analogue (threefold dilution series starting at 10 μM) in 0.4% NFDM, 0.02% Tween and PBS was incubated in a separate 96-well plate at 37° C. for 2 h. After washing the blocked plate, the mixture of 4E10, biotinylated peptide and competing structured HIV-1 gp41 peptide was added to the wells. After 20 min at room temperature, the wells were washed five times, and a 1:500 dilution of Goat Anti-Human IgG F(ab′)2, Peroxidase Conjugate was added. […] After 20 min, wells containing TMB solution were stopped by adding 50 μl of H2SO4 (2 M), and the absorbance at 450 nm was read on a microplate reader (Molecular Devices). The concentration of competitor peptide corresponding to a half-maximal signal (IC50) was determined by interpolation of the resulting binding curve using GraphPad Prism. […]

The nature of data set [4]: Circular dichroism, α-helical content. It counts as physicochemical. On the procedure:
The α-helicity of stapled modified polypeptides was compared to their unmodified counterparts by circular dichroism. CD spectra were obtained on an Aviv spectropolarimeter at 20° C. using the following standard measurement parameters: wavelength, 190-260 nm; step resolution, 0.5 nm; speed, 20 nm/sec; accumulations, 10; response, 1 sec; bandwidth, 1 nm; path length, 0.1 cm. The α-helical content of each peptide was calculated by dividing the mean residue ellipticity [θ]222obs, by the reported [θ]222obs for a model helical peptide (Forood, B., E. J. Feliciano, and K. P. Nambiar, PNAS, 1993. 90(3): p. 838-842; J. Martin Scholtz, Biopolymers, 1991. 31(13): p. 1463-1470; Lawless, M. K., et al., Biochemistry, 1996. 35(42): p. 13697-13708) or using, for example, the Aviv machine using CDNN software developed by Brohm in order to deduce five different secondary structure fractions (helix, parallel and antiparallel beta-sheet, beta-turn and random coil). Protein Engineering, 1992. 5(3); p. 191-195
In order to evaluate secondary structure improvements of hydrocarbon-stapled peptides, we record and analyze circular dichroism (CD) spectra on an Aviv Biomedical spectrometer (model 410), as described above. […] The CD spectra are initially plotted as wavelength versus millidegree. […] After conversion to mean residue ellipticity, percent α-helicity can be calculated using the equation, % helicity=100×[θ]222/^max[θ]222, where ^max[θ]222=−40,000×[1−(2.5/number of amino acid residues)]. We also employ the curve-fitting CDDN software that is bundled with our spectrometer to calculate the relative fractions of secondary structure including α-helix, parallel and antiparallel β-sheet, β-turn and random coil.

The subject of data set [5] is HIV-1 HXBc2 virus bearing HR1 double mutations V38A/N42T and V38E/N42S. As to the kind of experiment: HIV-1 infectivity assay, enfuvirtide-resistant HR1 double mutants. In kind it is cell-based. How it is done: as §2

Take Sifuvirtide: in the data set “Chymotrypsin, pH 7 [1]”, the “Half-Life” value came to 2 min.
On to `CCCC[C@H](NC(C)=O)C(=O)N[C@H](C(=O)N[C@@H](Cc1c[nH]c2ccccc12)C(=O)N[C@@H](CCCC)C(=O)N[C@@H](CCC(=O)O)C(=O)N[C@@H](Cc1c[nH]c2ccccc12)C(=O)N[C@@]1(C)CCCC=CCCC[C@@](C)(C(=O)N[C@@H](CC(N)=O)C(=O)N[C@@H](Cc2ccc(O)cc2)C(=O)N[C@H](C(=O)N[C@@H](CO)C(=O)N[C@@H](CC(C)C)C(=O)N[C@H](C(=O)N[C@@H](Cc2c[nH]cn2)C(=O)N[C@@H](CO)C(=O)N[C@@H](CC(C)C)C(=O)N[C@H](C(=O)N[C@@H](CCC(=O)O)C(=O)N[C@@H](CCC(=O)O)C(=O)N[C@@H](CO)C(=O)N[C@@H](CCC(N)=O)C(=O)N[C@@H](CC(N)=O)C(=O)N[C@@H](CCC(N)=O)C(=O)N[C@@]2(C)CCCC=CCCC[C@@](C)(C(=O)N[C@@H](CCC(N)=O)C(=O)N[C@@H](CCC(=O)O)C(=O)N[C@@H](CC(C)C)C(=O)N[C@@H](CC(C)C)C(=O)N[C@@H](CCC(=O)O)C(N)=O)NC(=O)[C@H](CC(N)=O)NC(=O)[C@H](CCCCN)NC(=O)[C@H](CCC(=O)O)NC2=O)[C@@H](C)CC)[C@@H](C)CC)[C@@H](C)O)NC(=O)[C@H]([C@@H](C)CC)NC(=O)[C@H](CCC(=O)O)NC(=O)[C@H](CCCNC(=N)N)NC1=O)[C@@H](C)O` [SAH-gp41(626-662)(B, F)] (Ac-[Nle]TW[Nle]EW[S5]REI[S5]NYTSLIHSLIEESQNQ[S5]EKN[S5]QELLE-NH2; staple 7-11, 28-32), for which the Half-Life on chymotrypsin came out at 21.2 h. For the same compound, the “anti-HIV-1 (anti-viral) activity, in words” value in data set [2] is reported as “relatively impaired anti-viral activity”. Besides, the half-life at 25 μM in the data set on pepsin (pepsin (isolated protease) in buffer, pH 2) was 15.5 h.
Take enfuvirtide [listing 1 of 2 here]: in data set [2], the “anti-HIV-1 (anti-viral) activity, in words” value is recorded as “relatively impaired anti-viral activity”. The “Half-Life” value in “Chymotrypsin, pH 7 [3]” was 16.73 h. For the same compound, in the data set with pepsin, the “Half-life (minutes), pepsin” value came to 3320 min.
As for “SEQ ID NO:135: i, i+4 singly stapled SAH-MPER peptide stapled in a similar position (ELDKWASLWNWFNITN[S5]LWY[S5]K-NH2; staple 17-21)”, the “competition for 4E10 antibody binding, in words” value in the data set with 4E10 antibody is reported as “superior to the wild-type MPER peptide”.
Take “SEQ ID NO:136: i, i+3 singly stapled SAH-MPER peptide (ELDKWASLWNWFNITN[S5]LW[S5]IK-NH2; staple 17-20)”: in the data set with 4E10 antibody, the “competition for 4E10 antibody binding, in words” value is “compete more effectively for binding than an i, i+4 stapled peptide stapled in a similar position; also recorded: superior to the wild-type MPER peptide”.
With enfuvirtide [listing 2 of 2 here], in data set [4] (pH 2), the “% helicity at pH 2” value amounted to 49%. In data set [4] (pH 7), the “% helicity at pH 7” value turned out to be 19%. Besides, the “calculated α-helical content” value in data set [4] (physiologic pH) is reported as about 25%. Moreover, the “functional activity against HR1 double-mutant HIV-1, in words” value in data set [5] was “no functional activity”. The “Half-life (minutes), pepsin” value in the data set with pepsin stood at 4 min.
